Data: publication PMC9182490, “N-Glucosylation in Corynebacterium glutamicum with YdhE from Bacillus lichenformis” (Molecules, 2022)

Target: T1, YdhE (CO-YdhE) (Bacillus licheniformis, UniProt Q62XT4)
T1 construct: 45 kDa band on SDS-PAGE; not purified
T1 sequence (Q62XT4 1-404): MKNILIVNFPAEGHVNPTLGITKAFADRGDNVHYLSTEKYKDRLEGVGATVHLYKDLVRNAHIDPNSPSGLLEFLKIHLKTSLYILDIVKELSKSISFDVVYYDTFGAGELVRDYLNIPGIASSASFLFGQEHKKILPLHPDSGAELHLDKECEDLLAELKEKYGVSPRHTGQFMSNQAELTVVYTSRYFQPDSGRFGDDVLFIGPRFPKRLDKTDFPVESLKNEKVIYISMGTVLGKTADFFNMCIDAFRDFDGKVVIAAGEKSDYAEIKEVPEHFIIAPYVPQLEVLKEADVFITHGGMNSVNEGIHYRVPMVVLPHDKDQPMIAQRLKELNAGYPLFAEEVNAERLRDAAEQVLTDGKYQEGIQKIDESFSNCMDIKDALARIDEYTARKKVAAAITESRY
Assay: whole-cell N-glucosylation, HPLC-PDA and HR-QTOF ESI/MS, product NMR
Type: cell-based, Corynebacterium glutamicum
Settings: C. glutamicum harboring pSKSM-YdhE; glucose as sugar source, UDP-sugar donor made by host; 2 mM substrate, 37 °C; product is N-beta-D-glucopyranoside

CCCCOC(=O)c1ccc(N)cc1 [compound 2, butyl-4-aminobenzoate]
whole-cell N-glucosylation, HPLC-PDA and HR-QTOF ESI/MS, product NMR: confirmed the glucosylation of butyl-4-aminobenzoate
